Key:
[1] = target: T1, recombinant human mGlu7 receptor (Homo sapiens, UniProt Q14831); assay: NAM mGlu7 activity, forskolin-induced cAMP (HTRF) in T-REx 293 cell line; format: cell-based; details: T-REx 293 cells expressing human mGlu7; 5 µM LSP4-2022 (EC80), 5 µM forskolin
T1 construct: expressed in transfected cells; host or cells: T-REx 293 (tetracycline-inducible)

[2] = target: T1, recombinant human mGlu7 receptor; assay: as above; format: cell-based; details: forskolin-stimulated cAMP response, 5 µM LSP4-2022 (EC80), T-REx 293 human mGlu7; for inhibition at 10 µM: T-REx-293, 10 μM compound
Method: The cell lines with the tetracycline-inducible expression of human metabotropic receptors 4, 7, and 8 were described in detail by Chruścicka et al. (mGlu4 receptor NM_000841, mGlu7 receptor NM_000844.2, and mGlu8 receptor NM_000845). Cells were grown under standard cell culture conditions (37 °C, 5% CO2) in DMEM supplemented with 10% tetracycline-free FBS. The expression was induced through the addition of tetracycline to the culture medium at 0.75 μg/mL.
The determination of the intracellular cAMP through homogeneous time-resolved fluorescence (HTRF) was described in detail previously. Briefly, 48 h before the experiments, the expression of the receptor was induced through the addition of tetracycline to the culture medium; the next day, FBS and L-Glu were removed from the medium. Just before the cAMP measurement, the cells were detached and centrifuged. Then, the cell suspension in Hanks-HEPES (130 mM NaCl, 5.4 mM KCl, 1.8 mM CaCl2, 0.8 mM MgSO4, 0.9 mM NaH2PO4, 20 mM HEPES, and 3.25 mM glucose; pH 7.4) was incubated in the presence of 10 µM forskolin (mGlu7 receptor, 3 µM forskolin), the agonist LSP4-2022 or L-Glu (for mGlu4 and mGlu8), and a compound for 5 min. The intracellular concentration of cyclic AMP was measured by means of a cAMP Gi HTRF kit from Cisbio, according to the manufacturer’s instructions. After 1 h of incubation at room temperature, the fluorescence at 620 nm and 665 nm was read (Tecan Infinite M1000). The results were calculated as the 665 nm/620 nm ratio multiplied by 10^4. Each sample was prepared in triplicate. Data were analyzed using GraphPad Prism version 5.04 for Windows (GraphPad Software, San Diego, USA).
The activity of the compounds was examined in the T-REx 293-cell-line-expressing recombinant human mGlu7 receptor by detecting the level of cyclic AMP in the presence of 5 µM forskolin [7, 41]. […] The substances were incubated with 5 µM LSP4-2022 (EC80).
Firstly, all compounds were screened at 10 μM using three cell lines expressing the mGlu4/7/8 receptor to evaluate selectivity. For the mGlu4 and mGlu8 receptors, glutamic acid was used as an agonist and had good potency. […] VU0155041 and AZ12216052 were used as reference compounds for the mGlu4 and mGlu8 receptors, respectively. The parameter described as “% of inhibition” was introduced to compare the bioactivity of the new compounds to the reference NAM at a 10 μM concentration in the presence of 5 μM LSP4-2022 (0%) and 3 μM forskolin (100%). […] For compounds that passed the screening procedure, the dose–response curve in the presence of LSP4-2022 in 5 μM was evaluated compared to reference NAM ADX71743. Only compounds ALX-063, ALX-065, and ALX-171 (Figure S3, Supplementary Materials) met our conditions regarding bioactivity. All of them were further investigated to determine the EC50 and receptor selectivity. […]
2.1. NAM mGlu7 receptor activity on T-Rex 293 cell line
The activity of compounds was examined on T-REx 293 cell line expressing recombinant human mGlu7 receptor by detecting the level of cyclic AMP in the presence of 5 µM forskolin [14,15]. The cell line was […]
incubated with 5 µM of LSP4-2022 (EC80).

[3] = Metabolic stability in mouse microsomal fraction; format: in vitro ADME; details: for MML (metabolic stability liver microsome mouse): 1 µM, mouse microsomes 0.3 mg/mL, NADPH-regenerating system; for microsomal CLint at 1 µM: pH 7.4, mouse liver microsomes
Method: A metabolic stability assay was performed using a mouse microsomal fraction (phase I of metabolism) obtained from XenoTech (Kansas City, MO, USA). Compounds for metabolic stability testing were prepared as 10 mM stock solutions in DMSO. Compounds were incubated in triplicate at a 1 µM initial concentration with the microsomal fraction in the presence of NRS (NADPH-regenerating system, 1.3 mM). The final microsomal incubation (0.3 mg/mL) contained the components mentioned below in a pH 7.4 phosphate buffer. Control incubations were conducted without cofactors. The reference compound verapamil was used as a positive control. Incubations were carried out for 1 h on 96-well plates using a heated (+37 °C) orbital shaker (350 rpm). After incubation, the reaction was quenched through the addition of cold acetonitrile. The plate containing the samples was centrifuged at 2000 rpm for 15 min at 4 °C. The supernatants were analyzed using LC–MS.
The HPLC–MS consisted of a Dionex, Ultimate 3000 HPLC, and a Bruker Daltonics amaZon SL mass spectrometer (ESI-IT). The conditions were as follows: Column HPLC Ascentis Express C18 (5 cm × 2.1 mm, 2.7 µm) and an injection volume of 20 µL. An acetonitrile gradient was used with 0.1% formic acid in water at a constant flow rate of 1 mL/min. The programming was as follows: 0–0.5 min 5% ACN, 0.5–3.0 increase of 5–95%, 3.0–3.3 remaining at 95% ACN, 3.3–3.4 min decrease of 95–5% ACN, and 3.4–4.0 min 5% ACN. Samples were analyzed in a single-ion monitoring scan mode in positive mode. The conditions of the main parameters were as follows: a trap drive of 48.2, capillary exit voltage of 140.0 V, dry temperature (set) of 300 °C, nebulizer pressure (set) of 40.00 psi, dry gas flow (set) of 9.00 L/min HV capillary voltage of −4500 V, HV end-plate offset voltage of −500 V.
The percent loss of compounds was calculated through the normalization of the peak area against time 0, where the peak area at T0 was 100%. The elimination rate constant (h) was determined from the plot of ln (percent loss of compound) as a time function and equal to the minor value of the linear curve slope.

T1 sequence (Q14831 35-915): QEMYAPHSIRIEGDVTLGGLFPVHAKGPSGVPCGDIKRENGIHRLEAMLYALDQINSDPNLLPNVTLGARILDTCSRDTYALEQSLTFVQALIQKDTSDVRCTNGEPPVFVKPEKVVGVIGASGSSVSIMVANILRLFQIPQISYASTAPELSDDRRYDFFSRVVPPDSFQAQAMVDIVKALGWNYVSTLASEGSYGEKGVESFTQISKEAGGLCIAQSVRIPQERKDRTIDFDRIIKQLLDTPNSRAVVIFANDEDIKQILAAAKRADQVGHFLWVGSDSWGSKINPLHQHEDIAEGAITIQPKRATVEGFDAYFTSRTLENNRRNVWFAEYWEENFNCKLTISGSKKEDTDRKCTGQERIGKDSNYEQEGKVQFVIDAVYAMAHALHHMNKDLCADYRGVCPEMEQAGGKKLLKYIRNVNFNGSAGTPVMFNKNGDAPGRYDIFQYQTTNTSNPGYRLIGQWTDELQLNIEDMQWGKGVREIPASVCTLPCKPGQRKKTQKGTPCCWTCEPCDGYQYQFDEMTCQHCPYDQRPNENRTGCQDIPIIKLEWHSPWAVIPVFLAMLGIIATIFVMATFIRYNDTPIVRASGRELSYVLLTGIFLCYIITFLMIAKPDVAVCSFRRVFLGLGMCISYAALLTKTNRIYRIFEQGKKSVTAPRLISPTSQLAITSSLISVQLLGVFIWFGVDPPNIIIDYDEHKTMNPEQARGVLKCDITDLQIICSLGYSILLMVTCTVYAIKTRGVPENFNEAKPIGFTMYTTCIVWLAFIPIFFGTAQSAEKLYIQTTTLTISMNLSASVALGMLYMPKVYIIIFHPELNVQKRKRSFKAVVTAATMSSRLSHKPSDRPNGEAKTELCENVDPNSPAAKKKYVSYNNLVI

| SMILES | IC50 [1] | inhibition at 10 µM [2] | MML (metabolic stability liver microsome mouse) [3] | microsomal CLint at 1 µM [3] | Inhibition (%) ([2]; 10 μM compound) |
| --- | --- | --- | --- | --- | --- |
| Cn1c(-c2ccccc2Cl)nc2ccc(-c3ccccc3)cc2c1=O [ALX-065, 2-(2-chlorophenyl)-3-methyl-6-phenylquinazolin-4(3H)-one] | 4.65 ± 3.46 µM | 26.5 ± 11.8% | 0.81 % remaining after 60 min | 268 µL/min/mg | – |
| COc1cccc(-c2ccc3nc(-c4ccccc4Cl)n(C)c(=O)c3c2)c1OC [ALX-171, 2-(2-chlorophenyl)-6-(2,3-dimethoxyphenyl)-3-methylquinazolin-4(3H)-one] | 6.14 ± 3.42 µM | 30.8 ± 6.44% | 54.01 % remaining after 60 min | 34.2 µL/min/mg | 30.8 ± 6.44% |
| CCc1nc2c(o1)CC(c1ccc(C)cc1C)CC2=O (centres unmarked) [ADX71743, reference compound] | – | 42.6% | 0.01 % remaining after 60 min | – | – |

Source: article PMC9916658, “Design and Synthesis of New Quinazolin-4-one Derivatives with Negative mGlu7 Receptor Modulation Activity and Antipsychotic-Like Properties” (International Journal of Molecular Sciences, 2023)
